Measurements: patent US9730447B2, “Fungicidal amides” (E I DU PONT DE NEMOURS AND COMPANY, priority 2013, dated 2017)

Legend:
Assay type in all cases: in vivo
[1] = tested on: Stagonospora nodorum (also known as Septoria nodorum); assay: Test B: preventive spray on wheat seedlings, Stagonospora nodorum (wheat glume blotch), visual disease rating; details: 100 = 100% disease control, 0 = no control, unmarked values
From the text: (§1) General protocol for preparing test suspensions for Tests A-E: the test compounds were first dissolved in acetone in an amount equal to 3% of the final volume and then suspended at the desired concentration (in ppm) in acetone and purified water (50/50 mix by volume) containing 250 ppm of the surfactant Trem® 014 (polyhydric alcohol esters). The resulting test suspensions were then used in Tests A-E. Compounds were sprayed with either a 40 ppm or 10 ppm (*) test suspension to the point of run-off on the test plants which is the equivalent of a rate of 160 g ai/ha or 40 g ai/ha, respectively.
The test suspension was sprayed to the point of run-off on wheat seedlings. The following day the seedlings were inoculated with a spore suspension of Stagonospora nodorum (also known as Septoria nodorum; the causal agent of wheat glume blotch) and incubated in a saturated atmosphere at 20° C. for 48 h, and then moved to a growth chamber at 20° C. for 6 days, after which time visual disease ratings were made.
(§2) Results for Tests A-E are given in Table A. In the Table, a rating of 100 indicates 100% disease control and a rating of 0 indicates no disease control (relative to the controls). A dash (-) indicates no test results.

Botrytis cinerea = assay: Test A: preventive spray on tomato seedlings, Botrytis cinerea (gray mold), visual disease rating; details: 100 = 100% disease control, 0 = no control relative to controls, unmarked values
From the text: as §1
The test suspension was sprayed to the point of run-off on tomato seedlings. The following day the seedlings were inoculated with a spore suspension of Botrytis cinerea (the causal agent of gray mold on many crops) and incubated in a saturated atmosphere at 20° C. for 48 h, and moved to a growth chamber at 27° C. for 2 days, after which time visual disease ratings were made.
as §2

Septoria tritici = assay: Test C: preventive spray on wheat seedlings, Septoria tritici (wheat leaf blotch), visual disease rating; details: 100 = 100% disease control, 0 = no control, unmarked values
Summary of the method: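 Wheat seedlings sprayed to run-off at 40 ppm or 10 ppm (160 or 40 g ai/ha) in acetone/water with surfactant, inoculated with Septoria tritici spores next day. Held 48 h saturated at 24 °C, then 21 days at 20 °C. Visual rating scored as % disease control relative to controls.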

[2] = tested on: Erysiphe graminis f. sp. tritici; assay: Test E: preventive spray on wheat seedlings, Erysiphe graminis f. sp. tritici (wheat powdery mildew), visual disease rating; details: 100 = 100% disease control, 0 = no control, unmarked values
Summary of the method: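 Wheat seedlings were sprayed to run-off with 40 or 10 ppm suspension (160 or 40 g ai/ha) and dusted with spores the next day. They were then kept 8 days at 20 °C. Disease was rated visually as % control relative to untreated controls (0–100).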

[3] = tested on: Puccinia recondite f. sp. tritici; assay: Test D: preventive spray on wheat seedlings, Puccinia recondite f. sp. tritici (wheat leaf rust), visual disease rating; details: 100 = 100% disease control, 0 = no control, unmarked values
Summary of the method: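 Wheat seedlings sprayed to run-off with 40 ppm (160 g ai/ha) or 10 ppm (40 g ai/ha) suspension in acetone/water with 250 ppm surfactant, inoculated next day with leaf rust spores. After 24 h saturated at 20 °C then 6 days at 20 °C, visual rating of disease control (0–100) relative to controls.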

Compound	Test B disease control rating [1] [%]	Test A disease control rating (Botrytis cinerea) [%]	Test C disease control rating (Septoria tritici) [%]	Test E disease control rating [2] [%]	Test D disease control rating [3] [%]
3-(trifluoromethyl)-N-[2-[6-[3-(trifluoromethyl)-1H-pyrazol-1-yl]-3-pyridazinyl]phenyl]-2-pyridinecarboxamide [Compound 59]	100	100	100	99	100
O=C(Nc1ccccc1-c1ccc(C2=NOC(c3ccc(F)cc3)C2)nc1)c1ncccc1C(F)(F)F (racemic) [compound 6]	100	99	99	0	100
O=C(Nc1ccccc1-c1ccc(C2=NOC(c3cccc(F)c3)C2)nc1)c1ncccc1C(F)(F)F (racemic) [compound 17]	100	98	100	0	99
COc1cccc(C2CC(c3ccc(-c4ccccc4NC(=O)c4ncccc4C(F)(F)F)cn3)=NO2)c1 (racemic) [compound 18]	100	96	100	0	99
O=C(Nc1ccccc1-c1ccc(C2=NOC(c3cc(F)cc(F)c3)C2)nc1)c1ncccc1C(F)(F)F (racemic) [compound 19]	100	98	100	87	100
COc1cc(OC)cc(C2CC(c3ccc(-c4ccccc4NC(=O)c4ncccc4C(F)(F)F)cn3)=NO2)c1 (racemic) [compound 20]	100	89	96	0	99
Cc1ccsc1C(=O)Nc1ccccc1-c1ccc(-n2ccc(C(F)(F)F)n2)nc1 [compound 93]	97	0	–	99	100
Cn1cc(C(=O)Nc2ccccc2-c2ccc(-n3ccc(C(F)(F)F)n3)nc2)c(C(F)(F)F)n1 [compound 94]	98	0	–	99	100
Cc1ccsc1C(=O)Nc1ccccc1-c1cnc(-n2ccc(C(F)(F)F)n2)c(Cl)c1 [compound 95]	100	0	–	98	100
O=C(Nc1ccccc1-c1cnc(-n2ccc(C(F)(F)F)n2)c(Cl)c1)c1nccnc1Cl [compound 96]	60	0	–	96	99
Cn1cc(C(=O)Nc2ccccc2-c2cnc(-n3ccc(C(F)(F)F)n3)c(Cl)c2)c(C(F)(F)F)n1 [compound 97]	87	0	–	99	100
